Results taken from patent publication US6716858B1, “Methods for inhibiting diabetic complications” (Kansas University Medical Center, priority 1995, dated 2004).

How the values were obtained:
[1] = tested on: AGE formation in bovine serum albumin (BSA); assay: Uninterrupted glycation of BSA with glucose, anti-AGE ELISA; format: biochemical; settings: BSA 10 mg/ml, 1.0 M glucose, pH 7.5, 37° C., 6 weeks; inhibitors 3, 15 and 50 mM
Description: (§1) Uninterrupted Glycation with Glucose Bovine serum albumin, ribonuclease A, and human hemoglobin were incubated with glucose at 37° C. in 0.4 M sodium phosphate buffer of pH 7.5 containing 0.02% sodium azide. The protein, glucose (at 1.0 M), and prospective inhibitors (at 0.5, 3, 15 and 50 mM) were introduced into the incubation mixture simultaneously. Solutions were kept in the dark in capped tubes. Aliquots were taken and immediately frozen until analyzed by ELISA at the conclusion of the reaction. The incubations were for 3 weeks (Hb) or 6 weeks (RNase, BSA).
(§2) ELISA detection of AGE products. The general method of Engvall (1981, Methods Enzymol. 70:419-439) was used to perform the ELISA. Typically, glycated protein samples were diluted to approximately 1.5 ug/ml in 0.1 M sodium carbonate buffer of pH 9.5 to 9.7. The protein was coated overnight at room temperature onto 96-well polystyrene plates by pippetting 200 ul of the protein solution in each well (0.3 ug/well). After coating, the protein was washed from the wells with a saline solution containing 0.05% Tween-20. The wells were then blocked with 200 ul of 1% casein in carbonate buffer for 2 h at 37° C. followed by washing. Rabbit anti-AGE antibodies were diluted at a titer of about 1:350 in incubation buffer, and incubated for 1 h at 37° C., followed by washing. In order to minimize background readings, antibodies R479 used to detect glycated RNase were raised against glycated BSA, and antibodies R618 used to detect glycated BSA and glycated Hb were raised against glycated RNase. An alkaline phosphatase-conjugated antibody to rabbit IgG was then added as the secondary antibody at a titer of 1:2000 or 1:2500 (depending on lot) and incubated for 1 h at 37° C., followed by washing. The p-nitrophenylphosphate substrate solution was then added (200 ul/well) to the plates, with the absorbance of the released p-nitrophenolate being monitored at 410 nm with a Dynatech MR 4000 microplate reader.
FIGS. 1 A-D are graphs which show the effect of vitamin B6 derivatives on post-Amadori AGE formation in bovine serum albumin glycated with glucose. BSA (10 mg/ml) was incubated with 1.0 M glucose in the presence and absence of the various indicated derivative in 0.4 M sodium phosphate buffer of pH 7.5 at 37° C. for 6 weeks. Aliquots were assayed by ELISA using R618 anti-AGE antibodies. Concentrations of the inhibitors were 3, 15 and 50 mM. Inhibitors used in FIGS. (1A) Pyridoxamine (PM); (1B) pyridoxal phosphate (PLP); (1C) pyridoxal (PL); (1D) pyridoxine (PN).
FIGS. 2A-D are graphs which show the effect of vitamin B1 derivatives and aminoguanidine (AG) on AGE formation in bovine serum albumin. BSA (10 mg/ml) was incubated with 1.0 M glucose in the presence and absence of the various indicated derivative in 0.4 M sodium phosphate buffer of pH 7.5 at 37° C. for 6 weeks. Aliquots were assayed by ELISA using R618 anti-AGE antibodies. Concentrations of the inhibitors were 3, 15 and 50 mM. Inhibitors used in FIGS. (2A) Thiamine pyrophosphate (TPP); (2B) thiamine monophosphate (TP); (2C) thiamine (T); (2D) aminoguanidine (AG).

[2] = tested on: AGE formation in human methemoglobin (Hb); assay: Uninterrupted glycation of human methemoglobin with glucose, anti-AGE ELISA; format: biochemical; settings: Hb 1 mg/ml, 1.0 M glucose, 3 weeks; inhibitors 0.5, 3, 15 and 50 mM
Description: as §1, §2
(§3) Aliquots were assayed by ELISA using R618 anti-AGE antibodies.
as §3

[3] = tested on: AGE formation during uninterrupted glycation of ribonuclease A (RNase A) by ribose; assay: Uninterrupted ribose glycation assay, RNase; format: biochemical, bovine; settings: continuous 0.05 M ribose, 6 weeks, inhibitors 0.5-50 mM
Description: as §2
as §1, with “ribose glycation assays” for “Glycation with Glucose”, “ribose” for “glucose”, “protein (10 mg/ml or 1 mg/ml), 0.05 M ribose,” for “protein, glucose (at 1.0 M),”, “BSA). Glycation reactions were monitored for constant pH throughout the duration of the experiments.” for “BSA).”
The inhibitory effects of vitamin B1 and B6 derivatives on the kinetics of antigenic AGE formation were evaluated by polyclonal antibodies specific for AGEs. Initial inhibition studies were carried out on the glycation of bovine ribonuclease A (RNase) in the continuous presence of 0.05 M ribose, which is the concentration of ribose where the rate of AGE formation is near maximal.

[4] = tested on: AGE formation during uninterrupted glycation of bovine serum albumin (BSA) by ribose; assay: Uninterrupted ribose glycation assay, BSA; format: biochemical; settings: 0.05 M ribose, 6 weeks, inhibitors 0.5-50 mM
Description: as §2
as §1, with “ribose glycation assays” for “Glycation with Glucose”, “ribose” for “glucose”, “protein (10 mg/ml or 1 mg/ml), 0.05 M ribose,” for “protein, glucose (at 1.0 M),”, “BSA). Glycation reactions were monitored for constant pH throughout the duration of the experiments.” for “BSA).”

[5] = tested on: post-Amadori AGE formation, RNase Amadori intermediate; assay: Interrupted (post-Amadori) ribose glycation assay, RNase; format: biochemical, bovine; settings: RNase
Description: as §2
Glycation Modifications Modification with ribose or glucose was generally done at 37° C. in 0.4 M phosphate buffer of pH 7.5 containing 0.02% sodium azide. The high buffer concentration was always used with 0.5 M ribose modifications. The solutions were kept in capped tubes and opened only to remove timed aliquots that were immediately frozen for later carrying out the various analyses. “Interrupted glycation” experiments were carried out by first incubating protein with the ribose at 37° C. for 8 or 24 h, followed by immediate and extensive dialysis against frequent cold buffer changes at 4° C. The samples were then reincubated by quickly warming to 37° C. in the absence of external ribose. Aliquots were taken and frozen at various intervals for later analysis. Due to the low molecular weight of RNase, protein concentrations were remeasured after dialysis even when low molecular weight cut-off dialysis tubing was used. An alternative procedure was also devised (see below) in which interruption was achieved by simple 100-fold dilution from reaction mixtures containing 0.5 M ribose. Protein concentrations were estimated from UV spectra. The difference in molar extinction between the peak (278 nm) and trough (250 nm) was used for RNase concentration determinations in order to compensate for the general increase in UV absorbance that accompanies glycation. Time-dependent UV-difference spectral studies were carried out to characterize the glycation contributions of the UV spectrum. […]
Glycation was first carried out by incubating protein (10 mg/ml) with 0.5 M ribose at 37° C. in 0.4 M phosphate buffer at pH 7.5 containing 0.2% sodium azide for 24 h in the absence of inhibitors. Glycation was then interrupted to remove excess and reversibly bound (Schiff base) sugar by extensive dialysis against frequent cold buffer changes at 4° C.

[6] = 24 h in 0.5 M ribose, then free ribose removed, 37° C.

Row | inhibition of post-Amadori AGE formation ([5]; 50 mM inhibitor) | SMILES | inhibition of antigenic AGE formation (ELISA) [1] | inhibition of antigenic AGE formation (ELISA) [2] | inhibition of overall kinetics of AGE formation from ribose [3] | inhibition of overall kinetics of AGE formation from ribose [4] | inhibition of post-Amadori AGE formation [5, 6]
1 | less than 15% | N=C(N)NN [aminoguanidine, reference compound] | produced some inhibition of AGE formation in BSA, but less so than the above compounds | only inhibited the rate of AGE formation, and not the final levels of AGE formed | decreased the rate of AGE formation on RNase, but did not reduce the final level of AGE formed | appearing to slow the rate of AGE formation without significantly affecting the final levels of AGE formed | modest effects on blocking the formation of antigenic AGEs in RNase
2 |  | Cc1ncc(CO)c(CN)c1O [pyridoxamine] | strongly suppressed antigenic AGE formation at even the lowest concentrations tested | the most effective inhibitors in each of their respective families | best inhibitor of the “final” levels of AGE formed on RNase | exhibited some inhibition at lower concentrations, and at the highest concentration tested appeared to inhibit the final levels of AGE formed more effectively than any of the other B6 derivatives | nearly complete inhibition of AGE formation with RNase at 15 mM and 50 mM
3 |  | Cc1ncc(C[n+]2csc(CCO[P@](=O)(O)OP(=O)(O)O)c2C)c(N)n1 [thiamine pyrophosphate] | effective at all concentrations tested | the most effective inhibitors in each of their respective families | both the rate of AGE formation and the final levels of AGE produced at the plateau appeared diminished | inhibited the final levels of AGEs formed, without greatly affecting the rate of AGE formation | inhibited AGE formation more effectively than the other B1 derivatives
